Test results taken from PubChem BioAssay AID330 (DTP/NCI, 2004).
“And” between values parts separate entries of the source, which are not always exact repeats. Identical values can stand only once. Inconclusive results and toxic doses are left out. How the source made its calls: active means survival T/C of 150% or more; inactive means T/C below 125% in these data.

Test system: P388 leukemia ip, CD2F1 mice, survival T/C
Experiment: NCI In Vivo Anticancer Drug Screen. Data for tumor model P388 Leukemia (intraperitoneal) in CD2F1 (CDF1) mice
Settings: endpoint: median survival time, higher = longer survival
Outline: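 Mice carrying the transplanted tumor received test compound or vehicle. Survival was recorded in each group, and the value is the treated-group measurement divided by that of the vehicle-treated control group.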

[1] = dose: 50.0 mg/kg/injection, schedule: Q04DX003 (ip), vehicle: saline
[2] = dose: 50.0 mg/kg/injection, schedule: Q01DX005 (ip), vehicle: saline with Tween-80
[3] = dose: 100.0 mg/kg/injection, schedule: Q01DX005 (ip), vehicle: saline with Tween-80
[4] = dose: 200.0 mg/kg/injection, schedule: Q01DX005 (ip), vehicle: saline with Tween-80
[5] = dose: 50.0 mg/kg/injection, schedule: Q01DX009 (ip), vehicle: Klucel (hydroxypropylcellulose) (HPC)
[6] = dose: 100.0 mg/kg/injection, schedule: Q01DX009 (ip), vehicle: Klucel (hydroxypropylcellulose) (HPC)
[7] = dose: 200.0 mg/kg/injection, schedule: Q01DX009 (ip), vehicle: Klucel (hydroxypropylcellulose) (HPC)
[8] = dose: 60.0 mg/kg/injection, schedule: Q01DX005 (ip), vehicle: saline with Tween-80
[9] = dose: 50.0 mg/kg/injection, schedule: Q01DX005 (ip), vehicle: Klucel (hydroxypropylcellulose) (HPC)
[10] = dose: 100.0 mg/kg/injection, schedule: Q01DX005 (ip), vehicle: Klucel (hydroxypropylcellulose) (HPC)
[11] = dose: 200.0 mg/kg/injection, schedule: Q01DX005 (ip), vehicle: Klucel (hydroxypropylcellulose) (HPC)
[12] = dose: 120.0 mg/kg/injection, schedule: Q01DX005 (ip), vehicle: saline with Tween-80
[13] = dose: 240.0 mg/kg/injection, schedule: Q01DX005 (ip), vehicle: saline with Tween-80
[14] = dose: 50.0 mg/kg/injection, schedule: Q01DX009 (ip), vehicle: saline
[15] = dose: 200.0 mg/kg/injection, schedule: Q01DX009 (ip), vehicle: saline
[16] = dose: 60.0 mg/kg/injection, schedule: Q01DX005 (ip), vehicle: Klucel (hydroxypropylcellulose) (HPC)
[17] = dose: 120.0 mg/kg/injection, schedule: Q01DX005 (ip), vehicle: Klucel (hydroxypropylcellulose) (HPC)

Measured: T/C

CCCCCCCCC[N+](C)([O-])CCCCCC[N+](C)([O-])CCCCCCCCC (stereo not given)
inactive: dose: 12.5 mg/kg/injection, schedule: Q04DX003 (ip), vehicle: saline 103 % of control | dose: 25.0 mg/kg/injection, schedule: Q04DX003 (ip), vehicle: saline 96 % of control | [1] 93 % of control

CCOc1cc2c(cc1C(C)c1cc(C(C)(C)C)c(O)c(C(C)(C)C)c1)OCO2 (stereo not given)
inactive: [2] 100 % of control | [3] 91 % of control | [4] 88 % of control

CC(=O)O[B-]1(OC(C)=O)Oc2c3ccccc3c3c4c(ccc(c24)=[O+]1)O[B-](OC(C)=O)(OC(C)=O)[O+]=3
inactive: dose: 50.0 mg/kg/injection, schedule: Q01DX005 (ip), vehicle: Klucel + Tween-80 94 % of control | dose: 100.0 mg/kg/injection, schedule: Q01DX005 (ip), vehicle: Klucel + Tween-80 89 % of control | dose: 200.0 mg/kg/injection, schedule: Q01DX005 (ip), vehicle: Klucel + Tween-80 93 % of control

NC(CSSCC(N)C(=O)O)C(=O)O (stereo not given)
inactive: [5] 105 % of control | [6] 105 % of control | [7] 106 % of control

[CH3][Sn]([CH3])([CH3])[Cl]
inactive: dose: 0.19 mg/kg/injection, schedule: Q01DX009 (ip), vehicle: saline 100 % of control | dose: 0.39 mg/kg/injection, schedule: Q01DX009 (ip), vehicle: saline 97 % of control | dose: 0.78 mg/kg/injection, schedule: Q01DX009 (ip), vehicle: saline 101 % of control

C=C1C(C)C2C(Cc3ccccc3)NC(=O)C23OC(=O)/C=C\CC(=O)CCC(C)C/C=C/C3C1O (stereo not given)
inactive: dose: 5.0 mg/kg/injection, schedule: Q01DX009 (ip), vehicle: Klucel (hydroxypropylcellulose) (HPC) 110 % of control | dose: 10.0 mg/kg/injection, schedule: Q01DX009 (ip), vehicle: Klucel (hydroxypropylcellulose) (HPC) 118 % of control

COc1cc(C(=O)NOCc2cc3c(cc2Cl)OCO3)cc(OC)c1OC
inactive: dose: 100.0 mg/kg/injection, schedule: Q04DX003 (ip), vehicle: saline sonified 90 % of control | dose: 400.0 mg/kg/injection, schedule: Q04DX003 (ip), vehicle: saline sonified 90 % of control

Cc1ccc2c(c1)nc(C)c(=O)n2CC1CCCN2CCCC[C@H]12 (stereo not given in full)
inactive: dose: 15.0 mg/kg/injection, schedule: Q01DX005 (ip), vehicle: saline with Tween-80 97 % of control | dose: 30.0 mg/kg/injection, schedule: Q01DX005 (ip), vehicle: saline with Tween-80 97 % of control | [8] 97 % of control

Nc1cc(S(N)(=O)=O)ccc1SSc1ccc(S(N)(=O)=O)cc1N
inactive: [5] 94 % of control | dose: 50.0 mg/kg/injection, schedule: Q01DX009 (ip), vehicle: saline with Tween-80 105 % of control | [6] 112 % of control | dose: 100.0 mg/kg/injection, schedule: Q01DX009 (ip), vehicle: saline with Tween-80 109 % of control | [7] 112 % of control | dose: 200.0 mg/kg/injection, schedule: Q01DX009 (ip), vehicle: saline with Tween-80 110 % of control | dose: 400.0 mg/kg/injection, schedule: Q01DX009 (ip), vehicle: Klucel (hydroxypropylcellulose) (HPC) 121 % of control | dose: 400.0 mg/kg/injection, schedule: Q01DX009 (ip), vehicle: saline with Tween-80 117 % of control

CNC(=O)c1n[nH]c(=S)[nH]c1=O
inactive: [9] 111 % of control | dose: 50.0 mg/kg/injection, schedule: Q01DX005 (ip), vehicle: saline 100 % of control | [10] 104 % of control | dose: 100.0 mg/kg/injection, schedule: Q01DX005 (ip), vehicle: saline 101 % of control | [11] 101 % of control | dose: 200.0 mg/kg/injection, schedule: Q01DX005 (ip), vehicle: saline 101 % of control

O=C(O)CSc1nnc(Cc2cccc3ccccc23)n1-c1ccccc1
inactive: [9] 100 % of control | [10] 102 % of control | [11] 100 % of control

OC1CC2c3ccccc3C1c1ccccc12 (stereo not given)
inactive: [9] 95 % of control | [10] 99 % of control | [11] 100 % of control

COc1nccn2c(C)nnc12
inactive: dose: 100.0 mg/kg/injection, schedule: Q01DX001 (ip), vehicle: Klucel (hydroxypropylcellulose) (HPC) 100 % of control | dose: 200.0 mg/kg/injection, schedule: Q01DX001 (ip), vehicle: Klucel (hydroxypropylcellulose) (HPC) 100 % of control

CSc1nc(N)c(C#N)c(SC)c1C#N
inactive: [1] 98 % of control | dose: 100.0 mg/kg/injection, schedule: Q04DX003 (ip), vehicle: saline 112 % of control | dose: 200.0 mg/kg/injection, schedule: Q04DX003 (ip), vehicle: saline 101 % of control

O=[N+]([O-])c1ccccc1N(CCO)CCO
inactive: [8] 96 % of control | [12] 99 % of control | [13] 98 % of control

CC(=O)/C=C(\C)Nc1ccccc1
inactive: dose: 12.5 mg/kg/injection, schedule: Q01DX009 (ip), vehicle: saline 106 % of control | dose: 25.0 mg/kg/injection, schedule: Q01DX009 (ip), vehicle: saline 102 % of control | [14] 91 % of control and 97 % of control | [15] 97 % of control

Cc1nc2ccccc2c(=O)n1/N=C\c1ccc2c(c1)CCC2
inactive: [16] 97 % of control | [17] 104 % of control | dose: 240.0 mg/kg/injection, schedule: Q01DX005 (ip), vehicle: Klucel (hydroxypropylcellulose) (HPC) 95 % of control

O=C(Cc1nc2ccccc2[nH]c1=O)N/N=C/c1ccc2c(c1)CCC2
inactive: [8] 92 % of control and 95 % of control | [12] 100 % of control | [13] 89 % of control

NC(=O)c1cc(Cl)nc2nc(Cl)nc(N)c12
inactive: [2] 105 % of control | dose: 50.0 mg/kg/injection, schedule: Q04DX003 (ip), vehicle: saline with Tween-80 101 % of control | [3] 105 % of control | dose: 100.0 mg/kg/injection, schedule: Q04DX003 (ip), vehicle: saline with Tween-80 100 % of control and 114 % of control | [4] 108 % of control | dose: 200.0 mg/kg/injection, schedule: Q04DX003 (ip), vehicle: saline with Tween-80 106 % of control | dose: 400.0 mg/kg/injection, schedule: Q01DX005 (ip), vehicle: saline with Tween-80 112 % of control | dose: 400.0 mg/kg/injection, schedule: Q04DX003 (ip), vehicle: saline with Tween-80 110 % of control and 111 % of control

C1OC2C1OC1COC12 (stereo not given)
inactive: dose: 60.0 mg/kg/injection, schedule: Q01DX005 (ip), vehicle: saline 108 % of control | dose: 120.0 mg/kg/injection, schedule: Q01DX005 (ip), vehicle: saline 100 % of control | dose: 240.0 mg/kg/injection, schedule: Q01DX005 (ip), vehicle: saline 107 % of control

O=C(Nc1ccccc1)Nc1ccc2c(c1)C(=O)CCCC2
inactive: [2] 96 % of control | [3] 93 % of control | [4] 94 % of control

Clc1nc(Cl)nc(Nc2ncccn2)n1
inactive: [16] 100 % of control | [17] 102 % of control

O=C(O)CC12CC3CC(CC(=O)O)(C1)CC(CC(=O)O)(C3)C2
inactive: [5] 109 % of control | [6] 108 % of control | [7] 111 % of control

COc1cccc2c1C(=O)c1c(O)c3c(c(O)c1C2=O)CC(O)(C(=O)CBr)CC3OC(C)=O (stereo not given)
inactive: dose: 1.56 mg/kg/injection, schedule: Q01DX009 (ip), vehicle: other 109 % of control | dose: 3.13 mg/kg/injection, schedule: Q01DX009 (ip), vehicle: other 103 % of control | dose: 6.25 mg/kg/injection, schedule: Q01DX009 (ip), vehicle: other 105 % of control | dose: 12.5 mg/kg/injection, schedule: Q01DX009 (ip), vehicle: other 113 % of control | dose: 25.0 mg/kg/injection, schedule: Q01DX009 (ip), vehicle: other 109 % of control

CC1N=C(SCc2ccc(Cl)cc2)N2C(C)N=C(SCc3ccc(Cl)cc3)N12 (stereo not given)
inactive: [14] 112 % of control | dose: 100.0 mg/kg/injection, schedule: Q01DX009 (ip), vehicle: saline 110 % of control | [15] 104 % of control

COc1ccc(CSC(=S)Nc2ccc(C)c(C)c2)cc1
inactive: dose: 50.0 mg/kg/injection, schedule: Q01DX009 (ip), vehicle: suspension in saline 99 % of control | dose: 100.0 mg/kg/injection, schedule: Q01DX009 (ip), vehicle: suspension in saline 100 % of control | dose: 200.0 mg/kg/injection, schedule: Q01DX009 (ip), vehicle: suspension in saline 99 % of control
